{"source": "PubChem BioAssay AID624472", "about": "(The Scripps Research Institute Molecular Screening Center, 2012)", "biological_target": "Monoacylglycerol lipase ABHD6 (Mus musculus) (UniProt Q8R2Y0)", "sequence (Q8R2Y0 whole entry, looked up)": "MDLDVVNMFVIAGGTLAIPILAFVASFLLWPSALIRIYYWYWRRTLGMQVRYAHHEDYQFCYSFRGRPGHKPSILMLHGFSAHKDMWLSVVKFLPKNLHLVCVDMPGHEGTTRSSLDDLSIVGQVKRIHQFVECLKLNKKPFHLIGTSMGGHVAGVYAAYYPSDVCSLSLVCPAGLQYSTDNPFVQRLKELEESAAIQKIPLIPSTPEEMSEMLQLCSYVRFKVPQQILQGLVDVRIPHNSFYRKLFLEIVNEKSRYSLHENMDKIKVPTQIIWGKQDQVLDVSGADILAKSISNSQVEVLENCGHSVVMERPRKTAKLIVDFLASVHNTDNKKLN", "assay": "ABHD6 inhibition in mouse proteome, late-stage follow-up, selectivity assay for DAGLb inhibitor project, biochemical, gel-based competitive ABPP, fluorescence, enantiomers (AID 624472)", "conditions": "at 10 µM (top of the series)"}
{"smiles": "O=C(N1CCCCC1Cc1ccccc1)n1cc(-c2ccc(Br)cc2)nn1", "note": "(stereo unspecified)", "values": [{"measurement": "inhibition", "value": 100, "unit": "%"}]}
